Results: patent publication US12642865B2, “Toroidal mixed nanoparticle, method for preparing the same, and method for multifunctional delivery using the same” (China Medical University, priority 2022, dated 2026)

How the values were obtained:
[1] = test system: HCT116-cell-bearing Balb-c/nude mice; assay: Histopathological analysis (H&E) of tumors and organs; format: in vivo; conditions: Day 16; control: livers, lungs, and spleens
Procedure: The tumors and livers harvested from mice were preserved in 4% formalin overnight and the tumor and livers were embedded in paraffin to form paraffin tissue blocks. Afterwards, the tissues were sliced into 5-μm thick sections using a microtome (Leica RM 2145, Leica, Wetzlar, Germany). These sections were stained with H & E. The histopathological analysis was performed using an optical microscope (Optiphot-2, Nikon, Tokyo, Japan).

[2] = Hepatic and renal functional evaluation (serum); format: in vivo, mice; conditions: after 16 d
Excerpt: To investigate the efficacy of tumor inhibition, HCT116-cell-bearing 4-week-old female Balb-c/nude mice whose tumor sizes were up to 500 mm^3 were separated into 3 groups and each group contained 5 mice. […] The tumor size and weight were monitored every 2 to 3 days for 16-days post-injection. At day 16 post-injection, the mice were all euthanized, and their blood was collected. Meanwhile, the tumor and liver of mice were collected. The tumors were photographed after excluding the extreme ones. The blood samples were centrifugated under 3000 RPM for 10 min to obtain the serum samples for hepatic and renal functional evaluations. The hepatic function was assessed by the aspartate aminotransferase (AST) and alanine aminotransferase (ALT) values; the function of the kidneys was evaluated with the index of blood urea nitrogen (BUN) and creatinine.

Structure (SMILES): NC1CCCCC1N.[Cl][Pt][Cl] (centres unmarked) [DACHPt, dichloro(1,2-diaminocyclohexane)platinum(II)]
- tumor metastasis in organs (H&E sections) [1]: only observed in lungs
- hepatic functional index ALT [2]: 40 ± 3 U/L
- hepatic functional index AST [2]: 134 ± 29 U/L
- renal functional index BUN [2]: 32.9 ± 9.3 mg/dL
- renal functional index Creatinine [2]: 0.44 ± 0.05 mg/dL
